From patent publication US6436902B1, “Therapeutic preparations for inhalation” (AstraZeneca AB, priority 1994, dated 2002)

Legend:
[1] = rats, intratracheal (IT) administration, cited from earlier work; for Shape of serum profile: 90 minutes experiment
[2] = Pharmacokinetic study: plasma concentration of PTH in dogs after inhalation of dry powder aerosol (RIA); assay type: in vivo, Beagle dogs; settings: for Shape of serum/plasma profile after inhalation: dry powder aerosol inhaled via endotracheal tube; for Plasma concentration of PTH: PTH 1-84, inhaled dose 14 μg/kg
Protocol: The powder formulations were compressed in dust containers and generated continuously as dry powder aerosols by a Wright Dust Feed (WDF). The aerosols were generated by scraping off the formulations from the tablets in the dust containers. The mass flow through the WDF was 8.01/min.
The inhaled dose (ID) was determined by measuring the inspiratory tidal volume (ITV) and the PTH concentration during inhalation.
Beagle dogs (n=5, at each formulation) were starved for 16 hours before inhalation and the experiments were performed in the mornings.
Venous blood samples for determination of PTH concentration were taken from the jugular vein into heparinized vacutainer tubes (2 ml). The samples were collected before dosing and at 10, 15, 20, 30, 40, 60, 90, 120, 240 and 360 minutes after start (t=0) of inhalation. The whole blood samples were centrifuged immediately, alternatively kept in ice water for maximum 20 minutes before centrifugation, and the plasma (1 ml) was sampled for PTH analysis. PTH in plasma was analyzed using radioimmunoassay (RIA) kits.

[3] = tested on: ovariectomized osteopenic rats; assay: Bone effect: mineral density of the distal femur in ovariectomized osteopenic rats; assay type: in vivo; settings: inhalation, 4 weeks of administration starting 6 weeks post ovariectomy
Protocol: The bone effect is measured in ovariectomized osteopenic rats as mineral density as weight/volume of the distal femur after 4 weeks of administration; starting 6 weeks post ovariectomy.

CC[C@H](C)[C@H](NC(=O)[C@H](CCC(=O)O)NC(=O)[C@H](CO)NC(=O)[C@@H](NC(=O)[C@@H](N)CO)C(C)C)C(=O)N[C@@H](CCC(N)=O)C(=O)N[C@@H](CC(C)C)C(=O)N[C@@H](CCSC)C(=O)N[C@@H](Cc1cnc[nH]1)C(=O)N[C@@H](CC(N)=O)C(=O)N[C@@H](CC(C)C)C(=O)NCC(=O)N[C@@H](CCCCN)C(=O)N[C@@H](Cc1cnc[nH]1)C(=O)N[C@@H](CC(C)C)C(=O)N[C@@H](CC(N)=O)C(=O)N[C@@H](CO)C(=O)N[C@@H](CCSC)C(=O)N[C@@H](CCC(=O)O)C(=O)N[C@@H](CCCN=C(N)N)C(=O)N[C@H](C(=O)N[C@@H](CCC(=O)O)C(=O)N[C@@H](Cc1c[nH]c2ccccc12)C(=O)N[C@@H](CC(C)C)C(=O)N[C@@H](CCCN=C(N)N)C(=O)N[C@@H](CCCCN)C(=O)N[C@@H](CCCCN)C(=O)N[C@@H](CC(C)C)C(=O)N[C@@H](CCC(N)=O)C(=O)N[C@@H](CC(=O)O)C(=O)N[C@H](C(=O)N[C@@H](Cc1cnc[nH]1)C(=O)N[C@@H](CC(N)=O)C(=O)N[C@@H](Cc1ccccc1)C(=O)O)C(C)C)C(C)C [PTH 1-34]
Shape of serum profile [1]: activity diminishing rapidly thereafter
Time of serum peak [1]: 15 min
level at time molar at 10 min ([2]; beagle, dog, plasma, inhaled or intranasal, 4 ug/kg, PTH 1-34, inhaled dose 4.0 μg/kg, 10 min after start of inhalation): 0.0304 nM
level at time molar at 0.25 h ([2]; beagle, dog, plasma, inhaled or intranasal, 4 ug/kg, PTH 1-34, inhaled dose 4.0 μg/kg, 15 min after start of inhalation): 0.0474 nM
level at time molar at 20 min ([2]; beagle, dog, plasma, inhaled or intranasal, 4 ug/kg, PTH 1-34, inhaled dose 4.0 μg/kg, 20 min after start of inhalation): 0.0496 nM
level at time molar at 0.5 h ([2]; beagle, dog, plasma, inhaled or intranasal, 4 ug/kg, PTH 1-34, inhaled dose 4.0 μg/kg, 30 min after start of inhalation): 0.0446 nM
level at time molar at 40 min ([2]; beagle, dog, plasma, inhaled or intranasal, 4 ug/kg, PTH 1-34, inhaled dose 4.0 μg/kg, 40 min after start of inhalation): 0.0362 nM
level at time molar at 1 h ([2]; beagle, dog, plasma, inhaled or intranasal, 4 ug/kg, PTH 1-34, inhaled dose 4.0 μg/kg, 60 min after start of inhalation): 0.026 nM
level at time molar at 1.5 h ([2]; beagle, dog, plasma, inhaled or intranasal, 4 ug/kg, PTH 1-34, inhaled dose 4.0 μg/kg, 90 min after start of inhalation): 0.017 nM
level at time molar at 2 h ([2]; beagle, dog, plasma, inhaled or intranasal, 4 ug/kg, PTH 1-34, inhaled dose 4.0 μg/kg, 120 min after start of inhalation): 0.0126 nM
level at time molar at 4 h ([2]; beagle, dog, plasma, inhaled or intranasal, 4 ug/kg, PTH 1-34, inhaled dose 4.0 μg/kg, 240 min after start of inhalation): 0.006 nM
level at time molar at 6 h ([2]; beagle, dog, plasma, inhaled or intranasal, 4 ug/kg, PTH 1-34, inhaled dose 4.0 μg/kg, 360 min after start of inhalation): 0.0076 nM
level at time molar at 0 h ([2]; beagle, dog, plasma, inhaled or intranasal, 4 ug/kg, PTH 1-34, inhaled dose 4.0 μg/kg, time 0 min (before dosing)): 0.008 nM
Shape of serum/plasma profile after inhalation [2]: pulsatile serum profile

PTH 1-84: Human parathyroid hormone, 84 amino acid protein (SEQ ID NO: 1); given as micronised dry powder with lactose and citrate
Shape of serum profile [1]: plateau which did not diminish significantly during the 90 minutes
Plasma concentration of PTH ([2]; 10 min after start of inhalation): 0.0083 nM
Plasma concentration of PTH ([2]; 15 min after start of inhalation): 0.0114 nM
Plasma concentration of PTH ([2]; 20 min after start of inhalation): 0.0116 nM
Plasma concentration of PTH ([2]; 30 min after start of inhalation): 0.0096 nM
Plasma concentration of PTH ([2]; 40 min after start of inhalation): 0.0079 nM
Plasma concentration of PTH ([2]; 60 min after start of inhalation): 0.0058 nM
Plasma concentration of PTH ([2]; 90 min after start of inhalation): 0.0041 nM
Plasma concentration of PTH ([2]; 120 min after start of inhalation): 0.003 nM
Plasma concentration of PTH ([2]; 360 min after start of inhalation): 0.0026 nM
Plasma concentration of PTH ([2]; time 0 min (before dosing)): 0.0034 nM
Shape of serum/plasma profile after inhalation [2]: pulsatile serum profile
Shape of serum/plasma profile after inhalation ([2]; listed as full-length PTH): pulsative plasma profile
Effect on femur bone formation (mineral density of the distal femur) [3]: significant effect on femur bone formation
